Source: publication PMC8237267 (Journal of Medicinal Chemistry, 2021)
Entries after “also recorded” stand apart in the source; their conditions may differ.

Assays:
[1] = In vivo PK study in CD-1 male mice; details: mouse, plasma, CD-1 mice, IP, 20 mg/kg
[2] = test system: primary T-PLL patient samples; experiment: Drug combination synergy in primary T-PLL patient samples; type: cell-based, human
Description: Primary T-PLL cells were isolated from peripheral blood (PB) of 10 T-PLL patients. All patients were diagnosed according to WHO criteria based on clinical features, immunophenotyping (flow cytometry and histochemisty; including TCL1 expression), and FISH/karyotyping.[71],[72] Samples were obtained from patients under IRB-approved protocols following written informed consent according to the Declaration of Helsinki. Collection and use of patient material have been approved for research purpose by the ethics committee of the University Hospital of Cologne (EudraCT-Nr.: #2008-001421-34 and AZ11-319) and Helsinki (303/13/03/01/2011).
PB mononuclear cells (PBMCs) of T-PLL samples were obtained by density gradient centrifugation (Histopaque; Sigma-Aldrich). All drug screening in primary T-PLL patient samples were conducted as previously described.[34],[73]

HDAC4 = biological target: T1, HDAC4 (Homo sapiens, UniProt P56524); experiment: HDAC EMSA activity assay (Nanosyn); type: biochemical
T1 construct: The full-length human HDACs were recombinantly expressed and purified from SF9 insect cells; host or cells: SF9 insect cells

CD-1 mice = experiment: Maximum tolerated dose / 5 day toxicity study; type: in vivo; details: 20 mg/kg P.O., daily for 5 days, listed as KT-531, 20 mg/kg
Description: Acute toxicity of the lead inhibitors was studied using 4–12 week old male CD-1 mice (Charles River). A concentration of 20 mg/kg of inhibitor via oral gavage was administered to mice (n = 5) over 5 days. The vehicle consisted of 10% DMSO, 5% Cremophor EL, and 85% saline. Mice were monitored daily for toxicity effects including excessive changes in weight and hair as well as changes to posture and inactivity. All mouse studies were approved by the Local Animal Care Committee at the University of Toronto and Office of Laboratory Animal Welfare (OLAW). The mice were housed in Tecniplast Blueline ventilated cages with environmental enrichment and fed a Teklad 2019 diet supplemented with municipal water.

acetylation of α-tubulin = experiment: Immunofluorescence assay in HeLa cells; type: cell-based; details: 6 h, increasing doses
Description: (§1) HeLa cells were plated to subconfluency on a 96-well plate (clear bottom black from Fisher Scientific). As above, inhibitors were introduced following 24 h. The cells were washed with 1× PBS, fixed with 4% formaldehyde (Millipore Sigma), permeabilized with 1% Triton X-100 (Millipore Sigma), and blocked in 5% bovine serum albumin (BSA) (BioShop) for 1 h at room temperature. Following this treatment, the cells were incubated in a cocktail composed of acetylated α-tubulin mouse monoclonal (1:100 dilution, MD Millipore) and acetylated histone H3 (1:50 dilution, Ac-Lys18, Sigma) antibodies. Secondary antibodies anti-mouse Alexa Fluor 647 and anti-rabbit Alexa Fluor 488 were used for immunofluorescent detection. Cells were counterstained for nucleic acids using 4′,6-diamidino-2-phenylindole (DAPI) (ThermoFisher Scientific). The cells were imaged with a Cytation S63 spectrophotometer and the fluorescence intensity was determined using ImageJ (n = 3). Two-way ANOVA with Tukey’s multiple comparisons test were performed using GraphPad Prism 6.0 (GraphPad Software Inc.). A p-value ≤ 0.05 was considered significant.

[3] = test system: acetylation of histone H3; experiment: Immunofluorescence assay in HeLa cells; type: cell-based; details: 6 h, increasing doses
Description: as §1

acetylated α-tubulin = experiment: Western blot in MV4-11 cells; type: cell-based; details: MV4-11, 6 h, higher inhibitor concentrations
Description: Briefly, MV4-11 cells were incubated with inhibitors prior to cell lysis with radioimmunoprecipitation assay (RIPA) buffer (20 mM Tris pH 7.4, 150 mM NaCl, 0.5% deoxycholate, 1% Triton X-100, and 0.1% sodium dodecyl sulfate (SDS)). Total protein content was determined through a BCA assay (ThermoFisher), resolved via a 4–20% polyacrylamide SDS gel, and transferred to a nitrocellulose membrane (Bio-Rad). The membranes were blocked with a 5% solution (skimmed milk powder in PBS-T). This was followed by incubation at 4 °C (overnight) with the following antibodies: acetylated α-tubulin mouse monoclonal (MABT868, EMD Millipore), acetylated histone H3 (Ac-Lys18, 07–354, Sigma), PARP-1 (ab227244, Abcam), apoptosis Western blot cocktail (136812, Abcam), cleaved PARP-1 (ab32561, Abcam), and HSC70 (sc-7298, Santa Cruz). Following overnight incubation, horseradish peroxidase (HRP)-conjugated goat anti-mouse IgG secondary antibody (7076, Cell Signaling) or HRP-linked anti-rabbit IgG secondary antibody (7074, Cell Signaling) was applied to the membrane in a 1:5000 dilution. The bands were visualized using clarity Western ECL substrate luminal/enhancer solution and peroxide solution. Western blotting analysis was carried out using Image lab software (Bio-Rad).[47],[50],[70]

Mac1 = experiment: Cytotoxicity assay (Cell Titer-Blue, 72 h); type: cell-based; details: ALK- ALCL; one representative of three experiments; read-out: IC50 (heat map) Mac1
Description: (§2) The PTCL cell lines, KHYG-1, NK-92, SNK6, DERL-2, Mac1, 1305 Myla, Hut78, SU-DHL-1 or T-ALL cell lines SUP-T11, DND-41, and MOLT4 were maintained in RPMI-1640 supplemented with 10% FBS, 0.06 g/L penicillin/0.1 g/L streptomycin (Pen/Strep, Gibco), and 2 mM L-glutamine (Gibco). Culture media of KHYG-1, NK-92, SNK6, and DERL-2 cells was additionally supplemented with 2.5 ng/mL recombinant human IL-2 (ImmunoTools GmbH, Germany). The authenticity of PTCL cell lines was confirmed by analysis of highly polymorphic short tandem repeat loci (STR) using the PowerPlex 16 HS System (Promega; performed by Microsynth AG, Switzerland).
(§3) Cells were plated in 96-well flat-bottom sterile culture plates with low-evaporation lids (Costar #3997). The inhibitors and a vehicle control (0.5% DMSO) were added to the cells following 24 h. After 72 h, Cell Titer-Blue (Promega #G808A) was added to each well (20 μL), and the fluorescence was measured at 560/590 nm using a Cytation S63 spectrophotometer (BioTek) or a GloMax Discover Microplate Reader (Promega, Madison, WI, USA). GraphPad Prism 6.0 (GraphPad Software Inc.) was used to determine the IC50 values.

Hut78 = experiment: Cytotoxicity assay (Cell Titer-Blue, 72 h); type: cell-based; details: Homo sapiens, CTCL, one representative of three experiments, read-out: IC50 (heat map) Hut78
Description: as §2, §3

T1 sequence (P56524 whole entry): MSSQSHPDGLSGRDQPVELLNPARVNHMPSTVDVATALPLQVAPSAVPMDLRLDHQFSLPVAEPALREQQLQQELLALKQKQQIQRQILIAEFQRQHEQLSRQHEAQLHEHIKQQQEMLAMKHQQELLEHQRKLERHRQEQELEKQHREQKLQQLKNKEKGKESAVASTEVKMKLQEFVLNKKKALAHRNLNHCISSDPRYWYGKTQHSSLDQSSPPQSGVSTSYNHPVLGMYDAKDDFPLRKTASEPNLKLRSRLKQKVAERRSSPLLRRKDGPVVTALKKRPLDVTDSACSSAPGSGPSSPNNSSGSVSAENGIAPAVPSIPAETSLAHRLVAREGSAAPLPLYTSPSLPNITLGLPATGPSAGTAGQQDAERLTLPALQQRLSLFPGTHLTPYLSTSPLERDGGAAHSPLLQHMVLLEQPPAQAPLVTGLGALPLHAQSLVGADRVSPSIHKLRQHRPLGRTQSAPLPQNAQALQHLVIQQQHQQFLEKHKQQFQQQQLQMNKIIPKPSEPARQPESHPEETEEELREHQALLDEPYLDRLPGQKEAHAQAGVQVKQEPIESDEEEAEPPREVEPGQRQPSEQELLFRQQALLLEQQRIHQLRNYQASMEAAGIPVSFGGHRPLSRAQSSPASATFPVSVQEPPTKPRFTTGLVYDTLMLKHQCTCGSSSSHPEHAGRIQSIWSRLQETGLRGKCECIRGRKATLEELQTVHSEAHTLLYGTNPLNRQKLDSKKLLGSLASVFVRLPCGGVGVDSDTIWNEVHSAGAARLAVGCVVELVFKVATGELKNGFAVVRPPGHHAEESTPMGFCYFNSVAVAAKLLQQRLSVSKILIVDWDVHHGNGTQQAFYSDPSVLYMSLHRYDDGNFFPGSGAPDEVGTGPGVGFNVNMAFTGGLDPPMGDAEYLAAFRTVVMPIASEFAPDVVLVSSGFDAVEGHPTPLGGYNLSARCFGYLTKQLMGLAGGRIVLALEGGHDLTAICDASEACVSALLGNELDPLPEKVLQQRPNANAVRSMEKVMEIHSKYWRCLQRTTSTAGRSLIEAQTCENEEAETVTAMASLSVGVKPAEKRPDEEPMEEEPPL

O=C(NO)c1ccc(CN(C2CC2)S(=O)(=O)c2cc(F)c(F)c(F)c2F)cc1 [Compound 14, 4-(((N-Cyclopropyl-2,3,4,5-tetrafluorophenyl)sulfonamido)methyl)-N-hydroxybenzamide]
Cmax at 24 h [1]: 493 ng/mL | MRT at 24 h [1]: 2.1 ± 0.5 h | AUC(0-t) at 24 h ([1]; read-out: In vivo AUClast (overall exposure)): 1580 ng·h/mL | half-life ([1]; read-out: In vivo t1/2): 1.05 h | combination with idasanutlin, bendamustine and venetoclax [2]: All combinations revealed synergistic relationships in patient samples | IC50 (HDAC4): > 1 µM | in vivo toxicity (CD-1 mice): no visible signs of toxicity or weight loss; also recorded: no observable toxicity in vivo | acetylation of α-tubulin (immunofluorescence) (acetylation of α-tubulin): significant acetylation of α-tubulin was observed | acetylation of histone H3 (immunofluorescence) [3]: no observable change in acetylation of histone H3 | acetylated α-tubulin levels (Western blot) (acetylated α-tubulin): comparable between citarinostat and KT-531 | IC50 (Mac1): 9.6 µM | IC50 (Hut78): 16.2 µM
